Assay results reported in patent publication US10842762B2, “Method of treating cardiovascular events using colchicine concurrently with an antiplatelet agent” (Murray and Poole Enterprises, LTD., priority 2012, dated 2020).

Key:
[1] = test system: patients with a first episode of recurrent pericarditis; details: at 18 months; conventional treatment with aspirin plus colchicine (1.0-2.0 mg first day, then 0.5-1.0 mg/d for 6 months); vs 50.6% with conventional treatment; cited from earlier work
[2] = test system: patients with objectively diagnosed and clinically stable coronary disease; experiment: LoDoCo Trial: prospective randomized observer blinded end-point trial of colchicine 0.5 mg/day added to standard secondary prevention therapies
Procedure: To assess the therapeutic effects of an immediate release formulation in patients with cardiovascular disease, a prospective randomized observer blinded end-point trial was conducted to determine whether adding 0.5 mg/day of colchicine to standard secondary prevention therapies including aspirin and high dose statins reduces the risk of cardiovascular events in patients with objectively diagnosed and clinically stable coronary disease.
Eligible consenting patients with established coronary disease presenting for routine clinical review were randomized to receive colchicine 0.5 mg/day or no colchicine without any other change to their medical therapy. All outcomes were evaluated by an experienced adjudicator blinded to the treatment allocation.
It was planned to recruit a study population that would include 500 patients planned (532 patients randomized as 32 dropped out early), 250 randomized to the control group and 250 patients randomized to treatment who were tolerant of colchicine for at least 4 weeks after the date of their randomization. Patients were eligible for inclusion if they met each of the following criteria: 1) angiographically proven coronary disease; 2) aged 35 to 85 years; 3) clinically stable for at least 6 months, 4) no major competing co-morbidities or contra-indication to colchicine therapy, 5) considered to be compliant with therapy and attending routine cardiology follow up appointments, and 6) willing to be consented and randomized into the study. Patients with a history of bypass surgery were only eligible if they had undergone bypass surgery more than 10 years before, or had angiographic evidence of graft failure or had undergone stenting since their bypass surgery. All patients signed informed consent before randomization.
The randomization sequence was computer generated, kept concealed from the investigators at all times and was managed by a research assistant who had no involvement in the evaluation or management of study patients. […] Despite electing to use the lowest dose of colchicine available, it was anticipated that a number of patients would withdraw from therapy early after randomization due to gastrointestinal side effects. In order to ensure that the requisite number of patients in the treatment arm were actually tolerant of treatment, the protocol allowed for the research assistant to assign a newly recruited patient to treatment if a patient discontinued colchicine due to side effects in the first month. Patients who were intolerant to therapy remained in the study, and were followed in the usual manner and included in the primary intention to treat analysis.
The drug was dispensed by their usual chemist, and if requested, patients were reimbursed for the cost of these scripts. All other treatments were continued as usual.
Patient compliance with treatment and outcome data were collected at routine follow up visits and at the time of any unplanned hospital admission. An acute coronary syndrome (ACS) was defined as either (a) Acute Myocardial Infarction (AMI), as evidenced by acute ischemic chest pain associated with a rise in serum troponin above the upper limit of normal or (b) Unstable Angina (UA), as evidenced by a recent acceleration of the patient's angina unassociated with a rise in serum troponin but associated with angiographic evidence of a change in the patient's coronary anatomy. […] The ACS was characterized as being stent-related if there was evidence of significant in-stent stenosis or acute stent thrombosis. Out of Hospital Cardiac Arrest was defined as either a sudden death as evidenced on the patient's death certificate, or a non-fatal out of hospital cardiac arrest, defined as a recovery from sudden collapse associated with documented asystole, ventricular tachycardia or ventricular fibrillation.

[3] = No treatment (no antithrombotic), n=1
[4] = Treated with Aspirin + clopidogrel + warfarin, n=2
[5] = Treated with Aspirin + clopidogrel, n=33
[6] = Treated with Aspirin + warfarin, n=6
[7] = Treated with Aspirin alone, n=173
[8] = Treated with Clopidogrel alone or warfarin alone (no aspirin), n=28
[9] = Treated with Clopidogrel alone, n=12
[10] = Treated with Warfarin alone, n=16
[11] = Treated with at least aspirin, n=214
[12] = Treated with at least one antiplatelet drug (aspirin, clopidogrel or combinations), n=226
[13] = Treated with at least one antithrombotic drug (aspirin, clopidogrel or warfarin or combinations), n=242
[14] = of 282 randomized to treatment, colchicine 0.5 mg/day

COc1cc2c(c(OC)c1OC)-c1ccc(OC)c(=O)cc1[C@@H](NC(C)=O)CC2 [colchicine, N[5,6,7,9-tetrahydro-1,2,3,10-tetratmethoxy 9-oxobenzo[a]heptalen-7-yl],(S)-acetamide]
recurrence rate (actuarial rate) [1]: 24.0%
stent related ACS with evidence of acute stent thrombosis, patients ([2]; 2 in each group): 2
stent related ACS with evidence of significant in-stent stenosis, patients ([2]; 2 in each group): 2
Primary Outcome, number of patients [2, 3]: 0
Primary Outcome, percent [2, 3]: (0%)
Primary Outcome, number of patients ([2]; Total, colchicine group n=243): 11
Primary Outcome, percent ([2]; Total, colchicine group n=243): (4.5%)
Primary Outcome, number of patients [2, 4]: 0
Primary Outcome, percent [2, 4]: (0%)
Primary Outcome, number of patients [2, 5]: 3
Primary Outcome, percent [2, 5]: (9%)
Primary Outcome, number of patients [2, 6]: 0
Primary Outcome, percent [2, 6]: (0%)
Primary Outcome, number of patients [2, 7]: 7
Primary Outcome, percent [2, 7]: (4%)
Primary Outcome, number of patients [2, 8]: 1
Primary Outcome, percent [2, 8]: (3.45%)
Primary Outcome, number of patients [2, 9]: 1
Primary Outcome, percent [2, 9]: (8.3%)
Primary Outcome, number of patients [2, 10]: 0
Primary Outcome, percent [2, 10]: (0%)
Primary Outcome, number of patients [2, 11]: 10
Primary Outcome, percent [2, 11]: (4.67%)
Primary Outcome, number of patients [2, 12]: 11
Primary Outcome, percent [2, 12]: (4.9%)
Primary Outcome, number of patients [2, 13]: 11
Primary Outcome, percent [2, 13]: 4.5%
Primary Outcome, percent ([2]; Treated with at least one antithrombotic drug (aspirin, clopidogrel or warfarin or combinations), n=242, listed as Colchicine): (4.5%)
patients who died of non-cardiac causes ([2]; colchicine group, all deaths): 4 patients
patients who died ([2]; colchicine group, control group ten): 4 patients
AMI unrelated to stent disease, hazard ratio ([2]; colchicine vs control, 95% CI 0.08-0.76, p=0.014): 0.25
UA unrelated to stent disease, hazard ratio ([2]; colchicine vs control, 95% CI 0.10-0.75, p=0.011): 0.27
ACS unrelated to stent disease, hazard ratio ([2]; colchicine vs control, 95% CI 0.12-0.55, p<0.001): 0.26
ACS, hazard ratio ([2]; colchicine vs control, 95% CI 0.18-0.63, p<0.001): 0.33
primary outcome, number needed to treat ([2]; intention-to-treat, colchicine vs control): 11
primary outcome, hazard ratio ([2]; intention-to-treat, colchicine vs control, 95% CI 0.18-0.59, p<0.001): 0.33
primary outcome, percent of patients ([2]; intention-to-treat, colchicine 0.5 mg/day, median follow up 36 months, control 16%): 5.3%
primary outcome (ACS, out of hospital cardiac arrest or non-cardio-embolic ischemic stroke), patients with event / patients assigned ([2]; intention-to-treat, colchicine 0.5 mg/day, median follow up 36 months, control 40/250): 15/282
ACS unrelated to stent disease associated with an AMI, percent ([2]; intention-to-treat, control 5.6%): 1.4%
ACS unrelated to stent disease, UA, percent ([2]; intention-to-treat, control 6.4%): 1.8%
ACS unrelated to stent disease, percent ([2]; intention-to-treat, control 12%): 3.2%
patients presenting with an ACS, percent ([2]; intention-to-treat, control 13.4%): 4.6%
ACS unrelated to stent disease associated with an AMI, patients / patients assigned ([2]; intention-to-treat, control 14/250): 4/282
ACS unrelated to stent disease, UA, patients / patients assigned ([2]; intention-to-treat, control 16/250): 5/282
ACS unrelated to stent disease, patients / patients assigned ([2]; intention-to-treat, control 30/250): 9/282
patients presenting with an ACS / patients assigned ([2]; intention-to-treat, control 34/250): 13/282
early intolerance due to gastrointestinal side effects, patients [2, 14]: 32
early intolerance due to gastrointestinal side effects, percent [2, 14]: 11%
events (primary outcome), hazard ratio ([2]; on-treatment analysis vs control, 95% CI 0.15-0.56, p<0.001): 0.29
events (primary outcome), percent ([2]; on-treatment analysis: compliant and tolerant beyond the first month, control 16%): 4.5%
events (primary outcome), patients / patients compliant and tolerant ([2]; on-treatment analysis: compliant and tolerant to therapy beyond the first month, control 40/250): 11/243
out of hospital cardiac arrest and non-cardio-embolic ischemic stroke ([2]; treatment group vs control, infrequent events): also reduced
